Assay results taken from ChEMBL document CHEMBL1201862, “PubChem BioAssay data set” (2004).
The source made the active and inactive calls.

Experiments:
[1] = target: T1, Voltage-gated N-type calcium channel alpha-1B subunit/Amyloid beta A4 precursor protein-binding family A member 1 (Homo sapiens, UniProt Q00975+Q02410); type: protein assay
[2] = target: T1, Voltage-gated N-type calcium channel alpha-1B subunit/Amyloid beta A4 precursor protein-binding family A member 1; type: protein assay; remark: listed apart in the source
[3] = target: T1, Voltage-gated N-type calcium channel alpha-1B subunit/Amyloid beta A4 precursor protein-binding family A member 1; experiment: disruptors of Mint-PDZ/N-type channel peptide interaction – biochemical, HTRF, SAR follow-up (AID 2489); type: functional
[4] = target: T2, Heat shock factor protein 1 (Mus musculus, UniProt P38532); experiment: inhibition of MG132-induced HSE-luciferase signal, confirmation, cell-based, NIH3T3, luminescence, dose retest (AID 2382); type: functional;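 further: NIH3T3 fibroblasts with HSF1-driven luciferase reporter stressed by proteasome inhibitor MG132; luminescence from HSF1-driven luciferase expression after 8 hours of MG132 stress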
T2 sequence (P38532 whole entry): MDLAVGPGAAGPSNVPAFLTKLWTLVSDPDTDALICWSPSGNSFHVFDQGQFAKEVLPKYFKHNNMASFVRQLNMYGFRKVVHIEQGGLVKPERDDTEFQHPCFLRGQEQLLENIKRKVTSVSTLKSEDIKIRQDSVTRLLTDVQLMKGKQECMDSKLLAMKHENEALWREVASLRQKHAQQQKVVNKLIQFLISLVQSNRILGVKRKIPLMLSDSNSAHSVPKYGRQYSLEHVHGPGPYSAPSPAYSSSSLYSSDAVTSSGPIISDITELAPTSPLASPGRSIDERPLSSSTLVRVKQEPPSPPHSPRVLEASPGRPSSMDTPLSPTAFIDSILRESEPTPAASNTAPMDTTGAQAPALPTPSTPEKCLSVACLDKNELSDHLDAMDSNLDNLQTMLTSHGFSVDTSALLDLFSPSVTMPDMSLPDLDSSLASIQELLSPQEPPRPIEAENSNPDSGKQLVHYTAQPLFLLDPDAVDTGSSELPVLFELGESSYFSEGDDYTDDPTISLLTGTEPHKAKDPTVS

Albumin = Albumin (Bos taurus, UniProt P02769); experiment: Counterscreen for inhibitors of T-cell receptor (TCR)-CD3 interaction: Fluorescence-based biochemical high throughput dose response assay to identify inhibitors of T-cell receptor (TCR)-CD3 interaction using a TAMRA-labeled BSA probe.; type: functional
[5] = target: T1, Voltage-gated N-type calcium channel alpha-1B subunit/Amyloid beta A4 precursor protein-binding family A member 1; experiment: disruptors of Mint-PDZ/N-type channel peptide interaction – biochemical, HTRF, set 2, SAR follow-up (AID 434980); type: functional
Estrogen receptor beta [6] = target: T3, Estrogen receptor beta (Homo sapiens, UniProt Q92731); experiment: ERβ–SRC-3 coactivator interaction inhibitors, confirmation, orthogonal assay, biochemical, ELISA, streptavidin-HRP readout (AID 1060)
T3 sequence (Q92731 whole entry): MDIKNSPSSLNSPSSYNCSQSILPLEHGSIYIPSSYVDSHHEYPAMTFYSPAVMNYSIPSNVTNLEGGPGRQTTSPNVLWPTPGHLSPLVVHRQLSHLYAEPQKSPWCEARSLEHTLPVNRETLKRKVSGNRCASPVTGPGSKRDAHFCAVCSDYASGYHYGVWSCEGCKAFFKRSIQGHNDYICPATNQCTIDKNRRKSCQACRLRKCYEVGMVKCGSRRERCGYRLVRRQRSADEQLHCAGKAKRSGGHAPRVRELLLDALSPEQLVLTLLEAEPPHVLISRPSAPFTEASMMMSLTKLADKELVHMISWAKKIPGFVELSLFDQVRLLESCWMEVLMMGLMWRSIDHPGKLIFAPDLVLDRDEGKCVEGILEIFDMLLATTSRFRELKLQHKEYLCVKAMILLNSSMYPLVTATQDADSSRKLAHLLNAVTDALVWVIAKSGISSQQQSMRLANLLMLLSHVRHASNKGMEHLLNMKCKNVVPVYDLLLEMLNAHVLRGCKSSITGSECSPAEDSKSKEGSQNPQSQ

Large T antigen = Large T antigen (Simian virus 40, UniProt P03070); type: functional, Betapolyomavirus macacae;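 further: Confirmatory-stage PubChem screen for compounds that inhibit SV40 T antigen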
Large T antigen, sequence (P03070 whole entry): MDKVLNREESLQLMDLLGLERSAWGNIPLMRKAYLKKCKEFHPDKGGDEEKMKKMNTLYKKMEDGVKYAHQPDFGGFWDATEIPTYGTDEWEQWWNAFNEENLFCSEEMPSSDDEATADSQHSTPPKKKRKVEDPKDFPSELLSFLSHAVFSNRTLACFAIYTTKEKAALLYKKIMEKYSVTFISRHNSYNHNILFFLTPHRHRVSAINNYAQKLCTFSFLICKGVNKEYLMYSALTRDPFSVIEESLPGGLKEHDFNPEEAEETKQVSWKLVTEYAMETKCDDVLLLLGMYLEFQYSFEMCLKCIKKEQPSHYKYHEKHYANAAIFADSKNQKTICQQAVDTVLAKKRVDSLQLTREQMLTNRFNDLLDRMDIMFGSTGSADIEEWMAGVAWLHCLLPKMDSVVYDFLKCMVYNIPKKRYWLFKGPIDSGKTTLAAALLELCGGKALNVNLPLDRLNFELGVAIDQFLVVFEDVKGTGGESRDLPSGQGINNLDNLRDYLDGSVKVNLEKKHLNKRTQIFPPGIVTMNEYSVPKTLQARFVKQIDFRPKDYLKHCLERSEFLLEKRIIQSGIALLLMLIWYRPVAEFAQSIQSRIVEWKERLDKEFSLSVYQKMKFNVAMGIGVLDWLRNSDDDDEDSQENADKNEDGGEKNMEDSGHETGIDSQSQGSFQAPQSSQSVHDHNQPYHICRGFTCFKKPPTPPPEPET

[7] = target: Protein-tyrosine kinase 2-beta (Homo sapiens, UniProt Q14289);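 further: potency of inhibitors of PYK2 kinase phosphorylation of poly-GT substrate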
[8] = target: Induced myeloid leukemia cell differentiation protein Mcl-1 (Homo sapiens, UniProt Q07820); type: functional
Induced myeloid leukemia cell differentiation protein Mcl-1, sequence (Q07820 whole entry): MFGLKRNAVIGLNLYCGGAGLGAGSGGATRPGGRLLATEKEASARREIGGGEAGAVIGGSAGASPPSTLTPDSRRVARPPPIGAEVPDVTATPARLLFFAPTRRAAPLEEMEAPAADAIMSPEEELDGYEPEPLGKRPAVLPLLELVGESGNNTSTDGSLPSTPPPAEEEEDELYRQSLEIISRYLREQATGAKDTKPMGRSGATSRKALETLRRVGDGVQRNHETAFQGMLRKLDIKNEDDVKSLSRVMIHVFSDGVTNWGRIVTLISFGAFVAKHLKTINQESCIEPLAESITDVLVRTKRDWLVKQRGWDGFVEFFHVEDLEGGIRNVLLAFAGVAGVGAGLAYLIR

Genome polyprotein = Genome polyprotein (Hepatitis C virus, UniProt Q2Q167); experiment: HCV core protein dimerization inhibitors, dose response, biochemical, TR-FRET (AID 2159); design: species or system Hepacivirus hominis;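 further: blocks dimerization of HCV core protein measured by TR-FRET between tagged core106 pairs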
NADPH oxidase 1 = NADPH oxidase 1 (Homo sapiens, UniProt Q9Y5S8); experiment: Late-stage luminescence-based cell-based dose response assay to identify inhibitors of NADPH oxidase 1 (NOX1): Synthesized analogs.; type: functional
Vero = experiment: West Nile virus antiviral activity, cell-based, CPE readout (AID 1621); type: functional; details: Chlorocebus sabaeus
[9] = cytotoxicity in HEK-293T cells, dose response, cytotoxicity control for TCR NF-kB inhibitor project, luminescence, T-cell screen hits (AID 489026); type: functional, cell-based;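 further: cells exposed to compound about 14 hours before the viability readout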
[10] = target: T4, Microphthalmia-associated transcription factor (Homo sapiens, UniProt O75030); experiment: TRPM1 promoter luciferase signal decrease, dose response, MITF inhibitor project, cell-based, SK-MEL-5, cherry-picked, set 3 (AID 493073); type: functional
T4 sequence (O75030 whole entry): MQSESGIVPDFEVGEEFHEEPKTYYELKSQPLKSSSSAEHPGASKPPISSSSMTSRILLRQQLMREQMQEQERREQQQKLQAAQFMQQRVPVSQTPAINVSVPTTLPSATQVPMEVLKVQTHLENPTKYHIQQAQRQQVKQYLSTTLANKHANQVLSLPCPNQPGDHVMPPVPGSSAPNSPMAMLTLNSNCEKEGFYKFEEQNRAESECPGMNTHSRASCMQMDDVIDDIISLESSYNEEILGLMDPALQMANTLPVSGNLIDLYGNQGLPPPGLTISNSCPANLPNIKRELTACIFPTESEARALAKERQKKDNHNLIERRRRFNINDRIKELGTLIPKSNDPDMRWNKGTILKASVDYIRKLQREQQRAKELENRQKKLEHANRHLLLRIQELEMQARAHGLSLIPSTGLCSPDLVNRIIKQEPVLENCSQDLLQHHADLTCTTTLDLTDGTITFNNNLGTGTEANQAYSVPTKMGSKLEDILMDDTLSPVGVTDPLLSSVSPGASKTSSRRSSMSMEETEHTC

Prothrombin = Prothrombin (Homo sapiens, UniProt P00734); experiment: Thrombin 1536 HTS Dose Response Confirmation. [Related pubchem assays: 1046 (Thrombin 1536 HTS; hits were confirmed in this assay)]; type: functional
Estrogen receptor = target: T5, Estrogen receptor (Homo sapiens, UniProt P03372);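 further: potency for inhibiting coactivator peptide recruitment to the receptor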
T5 sequence (P03372 whole entry): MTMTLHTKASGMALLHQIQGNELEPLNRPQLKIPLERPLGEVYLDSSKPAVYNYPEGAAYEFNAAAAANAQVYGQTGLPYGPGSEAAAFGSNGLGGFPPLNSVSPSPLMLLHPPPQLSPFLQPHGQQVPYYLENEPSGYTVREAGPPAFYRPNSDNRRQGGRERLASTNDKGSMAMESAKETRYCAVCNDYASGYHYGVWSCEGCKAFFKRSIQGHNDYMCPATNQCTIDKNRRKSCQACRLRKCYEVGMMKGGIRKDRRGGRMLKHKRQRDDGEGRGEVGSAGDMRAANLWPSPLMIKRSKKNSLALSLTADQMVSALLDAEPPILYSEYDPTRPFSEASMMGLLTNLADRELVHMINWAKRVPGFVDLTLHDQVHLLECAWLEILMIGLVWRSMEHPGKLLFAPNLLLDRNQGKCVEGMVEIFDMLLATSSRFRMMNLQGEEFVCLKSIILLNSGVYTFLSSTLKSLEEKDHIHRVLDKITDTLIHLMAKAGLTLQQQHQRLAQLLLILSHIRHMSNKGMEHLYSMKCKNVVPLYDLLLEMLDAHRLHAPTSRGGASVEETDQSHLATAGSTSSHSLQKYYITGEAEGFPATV

Trypsin = Trypsin (Sus scrofa, UniProt P00761); experiment: porcine trypsin inhibitors, dose response, selectivity assay for Rce1 protease inhibitor project, biochemical, quenched peptide fluorescence, cherry-pick (AID 488789)
Trypsin, sequence (P00761 whole entry): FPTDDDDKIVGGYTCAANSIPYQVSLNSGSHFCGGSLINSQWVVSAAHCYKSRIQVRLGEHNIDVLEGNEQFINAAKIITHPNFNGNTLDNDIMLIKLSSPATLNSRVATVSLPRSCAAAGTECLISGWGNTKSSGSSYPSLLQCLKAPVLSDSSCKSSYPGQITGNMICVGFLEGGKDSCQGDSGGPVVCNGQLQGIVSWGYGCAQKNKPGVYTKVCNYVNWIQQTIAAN

Heat shock protein HSP90 = Heat shock protein HSP90 (Homo sapiens, UniProt P07900+P08238); experiment: tumor Hsp90 inhibitor potency, dose response (AID 712); type: functional
CAAX prenyl protease 2 = target: T6, CAAX prenyl protease 2 (Homo sapiens, UniProt Q9Y256); experiment: human Rce1 protease inhibitors, dose response, biochemical, yeast membranes, quenched-peptide fluorescence, cherry-pick (AID 588849)
T6 sequence (Q9Y256 whole entry): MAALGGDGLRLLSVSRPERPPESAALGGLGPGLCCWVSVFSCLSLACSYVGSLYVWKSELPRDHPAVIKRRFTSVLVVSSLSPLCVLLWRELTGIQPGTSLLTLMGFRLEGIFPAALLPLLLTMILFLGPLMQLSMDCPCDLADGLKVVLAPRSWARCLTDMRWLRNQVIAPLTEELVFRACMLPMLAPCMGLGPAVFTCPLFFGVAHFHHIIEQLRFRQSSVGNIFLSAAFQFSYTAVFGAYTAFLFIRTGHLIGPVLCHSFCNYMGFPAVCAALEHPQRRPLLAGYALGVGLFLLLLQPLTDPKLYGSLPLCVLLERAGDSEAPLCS

Estrogen receptor beta [11] = target: T3, Estrogen receptor beta
[12] = HIV-1 Env-mediated cell fusion inhibitors, dose response, CCR5-tropic Env (AID 2279); type: functional
[13] = target: T7, Histone-lysine N-methyltransferase NSD2 (Homo sapiens, UniProt O96028); type: biochemical
T7 sequence (O96028 whole entry): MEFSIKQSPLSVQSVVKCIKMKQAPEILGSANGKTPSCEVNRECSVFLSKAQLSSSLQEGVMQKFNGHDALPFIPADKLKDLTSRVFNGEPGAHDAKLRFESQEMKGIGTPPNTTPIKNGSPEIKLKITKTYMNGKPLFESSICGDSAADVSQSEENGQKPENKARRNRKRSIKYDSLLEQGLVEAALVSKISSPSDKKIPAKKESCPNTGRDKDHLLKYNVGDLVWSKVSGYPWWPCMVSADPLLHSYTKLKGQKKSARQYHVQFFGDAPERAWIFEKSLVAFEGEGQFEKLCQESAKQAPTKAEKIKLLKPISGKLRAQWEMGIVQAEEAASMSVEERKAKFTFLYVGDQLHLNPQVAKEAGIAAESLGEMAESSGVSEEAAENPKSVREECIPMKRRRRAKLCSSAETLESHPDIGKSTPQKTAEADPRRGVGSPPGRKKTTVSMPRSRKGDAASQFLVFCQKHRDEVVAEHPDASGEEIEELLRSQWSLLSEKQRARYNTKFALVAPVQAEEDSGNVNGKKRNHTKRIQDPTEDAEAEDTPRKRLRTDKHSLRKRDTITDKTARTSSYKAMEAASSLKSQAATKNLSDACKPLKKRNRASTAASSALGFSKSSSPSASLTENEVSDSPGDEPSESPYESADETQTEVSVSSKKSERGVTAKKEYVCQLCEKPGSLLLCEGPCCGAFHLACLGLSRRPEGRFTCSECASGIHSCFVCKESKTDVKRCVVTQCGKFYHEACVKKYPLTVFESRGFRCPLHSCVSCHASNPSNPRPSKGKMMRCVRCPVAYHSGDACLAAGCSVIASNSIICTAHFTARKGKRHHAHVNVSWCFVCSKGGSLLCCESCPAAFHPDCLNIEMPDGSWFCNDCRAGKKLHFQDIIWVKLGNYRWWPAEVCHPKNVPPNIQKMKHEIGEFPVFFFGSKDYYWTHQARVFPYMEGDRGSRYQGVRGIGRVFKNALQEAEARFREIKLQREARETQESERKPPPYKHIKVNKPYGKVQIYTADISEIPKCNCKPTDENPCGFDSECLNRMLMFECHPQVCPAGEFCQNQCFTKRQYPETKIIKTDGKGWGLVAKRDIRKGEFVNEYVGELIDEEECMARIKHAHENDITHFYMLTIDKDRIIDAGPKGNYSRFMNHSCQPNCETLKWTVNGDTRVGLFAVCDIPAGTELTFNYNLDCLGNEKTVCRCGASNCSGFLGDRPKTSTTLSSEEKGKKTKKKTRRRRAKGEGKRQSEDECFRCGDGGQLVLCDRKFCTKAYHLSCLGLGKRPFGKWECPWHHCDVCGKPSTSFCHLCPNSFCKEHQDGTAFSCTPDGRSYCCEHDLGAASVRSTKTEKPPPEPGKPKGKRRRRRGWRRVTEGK

[14] = target: Heat shock protein HSP 90-alpha (Homo sapiens, UniProt P07900); experiment: Luminescence-based dose response biochemical high throughput screening assay for inhibitors of the Heat Shock Protein 90 (HSP90). [Related pubchem assays: 1831 (Summary AID.), 1846 (Confirmation screen.), 1789 (Primary screen.)]
[15] = target: T8, Long-chain-fatty-acid--AMP ligase FadD28 (Mycobacterium tuberculosis, UniProt P9WQ59); experiment: Fluorescence polarization aasay to screen for inhibitors that compete for the binding of FadD28 to a bisubstrate Measured in Biochemical System Using Plate Reader - 2147-01_Inhibitor_Dose_CherryPick_Activity.; type: functional, Mycobacterium tuberculosis H37Rv
T8 sequence (P9WQ59 whole entry): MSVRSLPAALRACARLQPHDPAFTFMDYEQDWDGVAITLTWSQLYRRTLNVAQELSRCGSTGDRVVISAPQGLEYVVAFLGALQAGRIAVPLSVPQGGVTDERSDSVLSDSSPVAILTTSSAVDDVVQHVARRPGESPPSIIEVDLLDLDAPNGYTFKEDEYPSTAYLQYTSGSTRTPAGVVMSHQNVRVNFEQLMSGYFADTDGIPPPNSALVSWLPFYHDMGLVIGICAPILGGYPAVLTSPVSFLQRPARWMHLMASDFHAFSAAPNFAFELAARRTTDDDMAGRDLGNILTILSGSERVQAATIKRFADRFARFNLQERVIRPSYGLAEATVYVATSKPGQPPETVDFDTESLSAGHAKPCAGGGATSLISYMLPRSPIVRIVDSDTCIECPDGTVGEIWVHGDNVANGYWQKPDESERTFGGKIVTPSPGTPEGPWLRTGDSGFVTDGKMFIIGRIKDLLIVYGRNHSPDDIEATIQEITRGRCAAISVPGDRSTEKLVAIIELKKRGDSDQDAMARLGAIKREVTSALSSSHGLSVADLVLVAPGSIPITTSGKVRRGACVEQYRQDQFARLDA

T1 sequence (Q00975 whole entry): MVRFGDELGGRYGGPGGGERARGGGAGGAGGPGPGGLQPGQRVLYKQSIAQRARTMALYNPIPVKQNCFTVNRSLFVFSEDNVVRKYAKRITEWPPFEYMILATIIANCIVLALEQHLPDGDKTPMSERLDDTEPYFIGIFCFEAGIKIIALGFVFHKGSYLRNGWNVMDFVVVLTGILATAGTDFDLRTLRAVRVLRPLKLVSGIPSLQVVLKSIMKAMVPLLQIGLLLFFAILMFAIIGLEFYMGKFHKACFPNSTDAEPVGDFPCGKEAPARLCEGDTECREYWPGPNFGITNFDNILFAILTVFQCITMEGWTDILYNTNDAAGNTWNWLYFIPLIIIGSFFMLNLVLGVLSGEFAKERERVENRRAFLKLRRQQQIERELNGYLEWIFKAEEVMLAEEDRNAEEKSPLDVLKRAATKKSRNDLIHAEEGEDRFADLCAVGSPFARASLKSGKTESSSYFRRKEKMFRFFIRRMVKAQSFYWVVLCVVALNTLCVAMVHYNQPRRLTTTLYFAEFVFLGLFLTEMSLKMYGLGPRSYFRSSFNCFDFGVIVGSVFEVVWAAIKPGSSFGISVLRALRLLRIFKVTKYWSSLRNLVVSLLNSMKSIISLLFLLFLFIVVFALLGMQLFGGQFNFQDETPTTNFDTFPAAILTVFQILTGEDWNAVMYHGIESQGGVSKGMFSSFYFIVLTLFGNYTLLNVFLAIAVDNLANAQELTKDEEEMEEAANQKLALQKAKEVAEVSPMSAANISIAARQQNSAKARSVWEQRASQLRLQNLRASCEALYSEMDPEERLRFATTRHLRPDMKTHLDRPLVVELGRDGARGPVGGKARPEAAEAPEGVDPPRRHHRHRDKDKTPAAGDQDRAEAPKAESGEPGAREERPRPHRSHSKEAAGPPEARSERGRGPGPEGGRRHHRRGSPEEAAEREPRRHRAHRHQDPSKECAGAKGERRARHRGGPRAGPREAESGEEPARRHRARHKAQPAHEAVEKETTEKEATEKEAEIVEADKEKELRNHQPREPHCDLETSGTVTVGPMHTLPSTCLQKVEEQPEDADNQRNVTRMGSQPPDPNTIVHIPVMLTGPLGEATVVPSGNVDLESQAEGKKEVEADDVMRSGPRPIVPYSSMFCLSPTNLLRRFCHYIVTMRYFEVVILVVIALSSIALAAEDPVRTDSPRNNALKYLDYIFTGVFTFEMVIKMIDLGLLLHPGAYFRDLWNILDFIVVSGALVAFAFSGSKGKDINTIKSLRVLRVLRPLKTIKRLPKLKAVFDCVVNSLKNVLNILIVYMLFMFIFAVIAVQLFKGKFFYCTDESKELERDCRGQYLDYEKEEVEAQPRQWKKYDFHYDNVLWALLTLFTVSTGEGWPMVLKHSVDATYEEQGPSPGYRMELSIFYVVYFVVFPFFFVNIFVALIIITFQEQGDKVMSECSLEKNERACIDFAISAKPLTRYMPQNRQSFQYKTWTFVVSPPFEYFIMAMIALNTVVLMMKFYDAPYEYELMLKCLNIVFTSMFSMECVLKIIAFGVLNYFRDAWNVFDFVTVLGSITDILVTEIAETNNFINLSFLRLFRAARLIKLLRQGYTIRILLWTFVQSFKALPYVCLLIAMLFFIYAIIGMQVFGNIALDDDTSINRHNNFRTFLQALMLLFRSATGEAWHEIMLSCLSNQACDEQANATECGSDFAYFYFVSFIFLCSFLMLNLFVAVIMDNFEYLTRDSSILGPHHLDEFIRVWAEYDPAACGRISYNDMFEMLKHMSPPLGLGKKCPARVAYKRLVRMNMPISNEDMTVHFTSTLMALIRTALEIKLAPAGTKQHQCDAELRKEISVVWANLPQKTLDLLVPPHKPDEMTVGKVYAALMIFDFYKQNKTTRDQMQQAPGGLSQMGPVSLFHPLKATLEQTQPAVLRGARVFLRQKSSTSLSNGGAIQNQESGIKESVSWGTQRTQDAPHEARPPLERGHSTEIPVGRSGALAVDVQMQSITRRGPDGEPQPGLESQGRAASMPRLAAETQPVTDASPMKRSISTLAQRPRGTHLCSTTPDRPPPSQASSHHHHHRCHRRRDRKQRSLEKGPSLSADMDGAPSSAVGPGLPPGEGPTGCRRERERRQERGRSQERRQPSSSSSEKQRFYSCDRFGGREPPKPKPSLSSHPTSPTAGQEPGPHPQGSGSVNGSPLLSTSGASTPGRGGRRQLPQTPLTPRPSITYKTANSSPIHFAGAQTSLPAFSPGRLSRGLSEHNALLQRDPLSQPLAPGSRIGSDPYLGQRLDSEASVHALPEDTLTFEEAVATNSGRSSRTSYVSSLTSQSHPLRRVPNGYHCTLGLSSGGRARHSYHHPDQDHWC
T1 sequence (Q02410 whole entry): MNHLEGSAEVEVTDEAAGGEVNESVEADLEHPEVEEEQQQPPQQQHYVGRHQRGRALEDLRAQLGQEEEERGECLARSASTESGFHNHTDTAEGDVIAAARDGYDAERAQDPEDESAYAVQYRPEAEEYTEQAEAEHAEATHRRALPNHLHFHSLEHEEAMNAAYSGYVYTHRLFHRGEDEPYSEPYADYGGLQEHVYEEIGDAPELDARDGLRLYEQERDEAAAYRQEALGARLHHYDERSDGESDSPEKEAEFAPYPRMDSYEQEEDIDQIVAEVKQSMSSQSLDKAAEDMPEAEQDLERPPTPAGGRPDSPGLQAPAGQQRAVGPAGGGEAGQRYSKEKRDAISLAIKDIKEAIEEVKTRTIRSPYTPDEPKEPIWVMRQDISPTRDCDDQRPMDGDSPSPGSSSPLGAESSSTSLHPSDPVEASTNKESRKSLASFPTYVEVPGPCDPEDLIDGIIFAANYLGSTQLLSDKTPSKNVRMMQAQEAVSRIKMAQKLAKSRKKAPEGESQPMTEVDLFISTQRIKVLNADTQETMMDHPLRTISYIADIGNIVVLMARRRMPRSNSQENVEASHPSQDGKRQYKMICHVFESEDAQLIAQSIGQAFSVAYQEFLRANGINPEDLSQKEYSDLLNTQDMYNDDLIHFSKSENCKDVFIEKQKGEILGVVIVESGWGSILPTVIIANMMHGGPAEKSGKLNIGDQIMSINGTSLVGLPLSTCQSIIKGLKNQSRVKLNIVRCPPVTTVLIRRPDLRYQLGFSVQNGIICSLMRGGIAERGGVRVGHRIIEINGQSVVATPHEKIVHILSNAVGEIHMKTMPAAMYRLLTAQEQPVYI

Nc1ncnc2oc(-c3ccco3)c(-c3ccco3)c12
IC50 [1]: 2.6 µM (active) | IC50 [2]: 3.82 µM (active) | IC50 [3]: 21.7 µM (active) | EC50 [4]: 56.7 µM (active) | IC50 (Albumin): > 94.1 µM (inactive) | IC50 [5]: 2.42 µM (active) | IC50 (Estrogen receptor beta [6]): 3.4 µM (not active) | IC50 (Large T antigen): 49.5 µM (active) | IC50 [7]: 2.92 µM (active) | IC50 [8]: 4.12 µM (active) | IC50 (Genome polyprotein): > 49.8 µM (not active)

CC(=NNc1cccc(C(=O)O)c1)c1ccc2c(c1)Nc1ccccc1S2
IC50 (NADPH oxidase 1): 0.305 µM (active)

CC(C)c1oc(=O)cc2c1[C@@H](O)[C@H]1OC(=O)[C@@]3(C)C[C@@H](O)[C@@H](O)[C@@]2(C)C13 (some centres not stated)
IC50 (Vero): 30.5 µM (active) | IC50 [9]: > 80 µM (inactive) | AC50 [10]: 1.63 µM (active)

COc1ccc(C(=O)n2c(SC)nc3cc4c(cc32)OCCO4)cc1
IC50 (Prothrombin): 0.955 µM (active)

COc1ccc(OC)c(/C=N/c2oc(-c3ccco3)c(-c3ccco3)c2C#N)c1
IC50 (Estrogen receptor): 16.3 µM (active) | AC50 (Trypsin): 7.23 µM (active) | IC50 (Heat shock protein HSP90): 21.1062 µM | AC50 (CAAX prenyl protease 2): 4.46 µM (active) | IC50 (Estrogen receptor beta [6]): 9.23 µM (not active) | IC50 (Estrogen receptor beta [11]): 6.47 µM (active) | IC50 [8]: 6.88 µM (active)

COc1ccc(C(=O)Oc2ccc(/C=N/Nc3ccc(Cl)c(C(=O)O)c3)cc2OC)cc1
IC50 [12]: 7.02 µM (active) | AC50 [13]: > 20 µM (inactive) | IC50 [14]: 1.5 µM (active) | AC50 [15]: 99.3 µM (active)
